{
  "source": "paper PMC10279527",
  "about": "“Structural basis of metabolite transport by the chloroplast outer envelope channel OEP21” (Nature Structural & Molecular Biology, 2023)",
  "biological_target": "OEP21 (Pisum sativum, UniProt Q9SM57)",
  "sequence (Q9SM57 whole entry)": "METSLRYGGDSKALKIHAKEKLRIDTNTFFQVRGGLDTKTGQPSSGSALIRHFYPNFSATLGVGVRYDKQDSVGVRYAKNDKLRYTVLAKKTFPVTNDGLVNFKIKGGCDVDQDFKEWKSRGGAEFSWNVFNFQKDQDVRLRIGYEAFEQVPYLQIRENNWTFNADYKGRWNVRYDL",
  "experiment": "CD-detected thermal melting of OEP21 in presence of metabolites",
  "assay_type": "binding, garden pea",
  "design": "made in house",
  "settings": "for raw CD / rel CD: 500 uM; for Melting point: ED Fig. 4a",
  "data": [
    {"smiles": "O=C[C@H](O)COP(=O)(O)O", "note": "[GAP, D-glyceraldehyde-3-phosphate]", "values": [
      {"measurement": "raw CD", "setting": "22.5 °C", "result": -23.3707},
      {"measurement": "rel CD", "setting": "22.5 °C", "result": 0.97},
      {"measurement": "raw CD", "setting": "23 °C", "result": -23.5919},
      {"measurement": "rel CD", "setting": "23 °C", "result": 0.9806},
      {"measurement": "raw CD", "setting": "23.5 °C", "result": -24.399},
      {"measurement": "rel CD", "setting": "23.5 °C", "result": 1.019},
      {"measurement": "raw CD", "setting": "24 °C", "result": -24.3596},
      {"measurement": "rel CD", "setting": "24 °C", "result": 1.017},
      {"measurement": "raw CD", "setting": "25 °C", "result": -24.3798},
      {"measurement": "rel CD", "setting": "25 °C", "result": 1.018},
      {"measurement": "raw CD", "setting": "26 °C", "result": -24.239},
      {"measurement": "rel CD", "setting": "26 °C", "result": 1.011},
      {"measurement": "raw CD", "setting": "27 °C", "result": -24.36},
      {"measurement": "rel CD", "setting": "27 °C", "result": 1.017},
      {"measurement": "raw CD", "setting": "28 °C", "result": -24.2279},
      {"measurement": "rel CD", "setting": "28 °C", "result": 1.011},
      {"measurement": "raw CD", "setting": "28.5 °C", "result": -24.3095},
      {"measurement": "rel CD", "setting": "28.5 °C", "result": 1.015},
      {"measurement": "raw CD", "setting": "29 °C", "result": -23.5401},
      {"measurement": "rel CD", "setting": "29 °C", "result": 0.9781},
      {"measurement": "raw CD", "setting": "30 °C", "result": -23.385},
      {"measurement": "rel CD", "setting": "30 °C", "result": 0.9707},
      {"measurement": "raw CD", "setting": "31 °C", "result": -24.0555},
      {"measurement": "rel CD", "setting": "31 °C", "result": 1.003},
      {"measurement": "raw CD", "setting": "32 °C", "result": -24.3068},
      {"measurement": "rel CD", "setting": "32 °C", "result": 1.015},
      {"measurement": "raw CD", "setting": "33 °C", "result": -24.4089},
      {"measurement": "rel CD", "setting": "33 °C", "result": 1.019},
      {"measurement": "raw CD", "setting": "34 °C", "result": -23.805},
      {"measurement": "rel CD", "setting": "34 °C", "result": 0.9907},
      {"measurement": "raw CD", "setting": "35 °C", "result": -24.5097},
      {"measurement": "rel CD", "setting": "35 °C", "result": 1.024},
      {"measurement": "raw CD", "setting": "36 °C", "result": -24.0481},
      {"measurement": "rel CD", "setting": "36 °C", "result": 1.002},
      {"measurement": "raw CD", "setting": "37 °C", "result": -23.8199},
      {"measurement": "rel CD", "setting": "37 °C", "result": 0.9914},
      {"measurement": "raw CD", "setting": "38 °C", "result": -23.8252},
      {"measurement": "rel CD", "setting": "38 °C", "result": 0.9917},
      {"measurement": "raw CD", "setting": "39 °C", "result": -23.7051},
      {"measurement": "rel CD", "setting": "39 °C", "result": 0.986},
      {"measurement": "raw CD", "setting": "68 °C", "result": -6.585},
      {"measurement": "rel CD", "setting": "68 °C", "result": 0.1707},
      {"measurement": "raw CD", "setting": "68.5 °C", "result": -6.193},
      {"measurement": "rel CD", "setting": "68.5 °C", "result": 0.1521},
      {"measurement": "raw CD", "setting": "69 °C", "result": -6.288},
      {"measurement": "rel CD", "setting": "69 °C", "result": 0.1566},
      {"measurement": "raw CD", "setting": "70 °C", "result": -5.958},
      {"measurement": "rel CD", "setting": "70 °C", "result": 0.1409},
      {"measurement": "raw CD", "setting": "70.5 °C", "result": -5.84},
      {"measurement": "rel CD", "setting": "70.5 °C", "result": 0.1352},
      {"measurement": "raw CD", "setting": "71 °C", "result": -5.586},
      {"measurement": "rel CD", "setting": "71 °C", "result": 0.1232},
      {"measurement": "raw CD", "setting": "71.5 °C", "result": -5.682},
      {"measurement": "rel CD", "setting": "71.5 °C", "result": 0.1277},
      {"measurement": "raw CD", "setting": "72 °C", "result": -5.192},
      {"measurement": "rel CD", "setting": "72 °C", "result": 0.1044},
      {"measurement": "raw CD", "setting": "73 °C", "result": -5.167},
      {"measurement": "rel CD", "setting": "73 °C", "result": 0.1032},
      {"measurement": "raw CD", "setting": "74 °C", "result": -4.493},
      {"measurement": "rel CD", "setting": "74 °C", "result": 0.07111},
      {"measurement": "raw CD", "setting": "74.5 °C", "result": -4.638},
      {"measurement": "rel CD", "setting": "74.5 °C", "result": 0.078},
      {"measurement": "raw CD", "setting": "75 °C", "result": -4.942},
      {"measurement": "rel CD", "setting": "75 °C", "result": 0.09249},
      {"measurement": "raw CD", "setting": "75.5 °C", "result": -4.618},
      {"measurement": "rel CD", "setting": "75.5 °C", "result": 0.07706},
      {"measurement": "raw CD", "setting": "76 °C", "result": -4.509},
      {"measurement": "rel CD", "setting": "76 °C", "result": 0.07187},
      {"measurement": "raw CD", "setting": "77 °C", "result": -4.747},
      {"measurement": "rel CD", "setting": "77 °C", "result": 0.0832},
      {"measurement": "raw CD", "setting": "77.5 °C", "result": -4.466},
      {"measurement": "rel CD", "setting": "77.5 °C", "result": 0.06981},
      {"measurement": "raw CD", "setting": "78 °C", "result": -4.843},
      {"measurement": "rel CD", "setting": "78 °C", "result": 0.08778},
      {"measurement": "raw CD", "setting": "78.5 °C", "result": -4.206},
      {"measurement": "rel CD", "setting": "78.5 °C", "result": 0.05742},
      {"measurement": "raw CD", "setting": "79 °C", "result": -3.995},
      {"measurement": "rel CD", "setting": "79 °C", "result": 0.0474},
      {"measurement": "raw CD", "setting": "79.5 °C", "result": -4.497},
      {"measurement": "rel CD", "setting": "79.5 °C", "result": 0.07129},
      {"measurement": "raw CD", "setting": "80 °C", "result": -4.058},
      {"measurement": "rel CD", "setting": "80 °C", "result": 0.05036},
      {"measurement": "raw CD", "setting": "81 °C", "result": -4.059},
      {"measurement": "rel CD", "setting": "81 °C", "result": 0.05042},
      {"measurement": "raw CD", "setting": "82 °C", "result": -4.217},
      {"measurement": "rel CD", "setting": "82 °C", "result": 0.05795},
      {"measurement": "raw CD", "setting": "82.5 °C", "result": -4.026},
      {"measurement": "rel CD", "setting": "82.5 °C", "result": 0.04886},
      {"measurement": "raw CD", "setting": "83 °C", "result": -4.494},
      {"measurement": "rel CD", "setting": "83 °C", "result": 0.07116},
      {"measurement": "raw CD", "setting": "83.5 °C", "result": -4.549},
      {"measurement": "rel CD", "setting": "83.5 °C", "result": 0.07377},
      {"measurement": "raw CD", "setting": "84 °C", "result": -4.1838},
      {"measurement": "rel CD", "setting": "84 °C", "result": 0.05637},
      {"measurement": "raw CD", "setting": "85 °C", "result": -3.693},
      {"measurement": "rel CD", "setting": "85 °C", "result": 0.03299},
      {"measurement": "raw CD", "setting": "86 °C", "result": -3.539},
      {"measurement": "rel CD", "setting": "86 °C", "result": 0.02569},
      {"measurement": "raw CD", "setting": "87 °C", "result": -3.736},
      {"measurement": "rel CD", "setting": "87 °C", "result": 0.03505},
      {"measurement": "raw CD", "setting": "87.5 °C", "result": -3.636},
      {"measurement": "rel CD", "setting": "87.5 °C", "result": 0.03029},
      {"measurement": "raw CD", "setting": "88 °C", "result": -3.641},
      {"measurement": "rel CD", "setting": "88 °C", "result": 0.03053},
      {"measurement": "raw CD", "setting": "88.5 °C", "result": -3.975},
      {"measurement": "rel CD", "setting": "88.5 °C", "result": 0.04642},
      {"measurement": "raw CD", "setting": "89 °C", "result": -3.567},
      {"measurement": "rel CD", "setting": "89 °C", "result": 0.02702},
      {"measurement": "raw CD", "setting": "90 °C", "result": -3.821},
      {"measurement": "rel CD", "setting": "90 °C", "result": 0.03908},
      {"measurement": "raw CD", "setting": "90.5 °C", "result": -3.627},
      {"measurement": "rel CD", "setting": "90.5 °C", "result": 0.02984},
      {"measurement": "raw CD", "setting": "91 °C", "result": -4.011},
      {"measurement": "rel CD", "setting": "91 °C", "result": 0.04814},
      {"measurement": "raw CD", "setting": "91.5 °C", "result": -3.609},
      {"measurement": "rel CD", "setting": "91.5 °C", "result": 0.02901},
      {"measurement": "raw CD", "setting": "92 °C", "result": -3.4371},
      {"measurement": "rel CD", "setting": "92 °C", "result": 0.02081},
      {"measurement": "raw CD", "setting": "93 °C", "result": -3.657},
      {"measurement": "rel CD", "setting": "93 °C", "result": 0.03128},
      {"measurement": "raw CD", "setting": "94 °C", "result": -3.717},
      {"measurement": "rel CD", "setting": "94 °C", "result": 0.03414},
      {"measurement": "raw CD", "setting": "95 °C", "result": -3.854},
      {"measurement": "rel CD", "setting": "95 °C", "result": 0.04065},
      {"measurement": "raw CD", "setting": "96 °C", "result": -3.335},
      {"measurement": "rel CD", "setting": "96 °C", "result": 0.01596},
      {"measurement": "raw CD", "setting": "97 °C", "result": -3.649},
      {"measurement": "rel CD", "setting": "97 °C", "result": 0.0309},
      {"measurement": "raw CD", "setting": "98 °C", "result": -3.661},
      {"measurement": "rel CD", "setting": "98 °C", "result": 0.03146},
      {"measurement": "raw CD", "setting": "99 °C", "result": -3.437},
      {"measurement": "rel CD", "setting": "99 °C", "result": 0.0208},
      {"measurement": "raw CD", "setting": "100 °C", "result": -3.04},
      {"measurement": "rel CD", "setting": "100 °C", "result": 0.001918},
      {"measurement": "Melting point", "setting": "OEP21 with 0.5 mM metabolite, CD at 215 nm, Apo 58.5", "result": "59.2 ｡C"},
      {"measurement": "Melting point", "setting": "OEP21 with 1 mM GAP", "result": "60.2 ｡C"}
    ]}
  ]
}
